According to patent US20220107317A1, “COMPOSITIONS AND METHODS FOR DIAGNOSING AND TREATING CORONAVIRUS DISEASE 2019” (priority 2020, published 2022):

B1: T2 peptide (peptide)
peptide: DLSGFVRPDPVIISSPLSTFFSDAGYKSLLKITMTQSTVPLNLIRVHLMVAVEGHLFQKSFQASPNLAYTFIWDKTDAYGQRVYGLSDAVVSVGFEYETCPSLILWEKRTALLQGFELD
modifications: not checked

Assays:
[1] = tested on: nCoV-S Luc pseudovirus of SARS-CoV-2; type: cell-based
SARS-CoV-2 spike protein = SARS-CoV-2 spike protein (Severe acute respiratory syndrome coronavirus 2, UniProt P0DTC2)
[2] = target: SARS-CoV-2 spike protein (SARS-CoV-2), P0DTC2

| Molecule | inhibition of infection of OECM1 cells [1] | biosensing sensitivity (SARS-CoV-2 spike protein) [ng in 1 μL per test] | concentration of SARS-CoV-2 spike protein at which binding activity is shown (SARS-CoV-2 spike protein) [pM] | biosensing sensitivity (ng in 1 µL per test) [2] | lowest spike protein concentration showing binding activity [2] [pM] |
| --- | --- | --- | --- | --- | --- |
| DLSGFVRPDPVIISSPLSTFFSDAGYKSLLKITMTQSTVPLNLIRVHLMVAVEG HLFQKSFQASPNLAYTFIWDKTDAYGQRVYGLSDAVVSVGFEYETCPSLILW EKRTALLQGFELD [T2 peptide] | significantly inhibited | 0.1 | 0.1 |  |  |
| B1 |  |  |  | 0.1 | 0.1 |
